Reference: patent US20050175719A1, “Procyanidins for treatment and prevention of enzymatic irritation to the skin” (priority 2004, published 2005)

Test system: trypsin
Test: Inhibition of trypsin-induced cleavage of fluorescent BODIPY FL casein (EnzChek protease assay kit)
Assay type: biochemical
Source text: The procedure of Example 1 was independently repeated using the procyanidin-containing grape seed extract and STI, respectively, at 0.1% concentration. In addition, the procedure of Example 1 was repeated on the five individual monomer units typically found in OPC, at up to three different concentration levels.

[1] = Table 4, concentration (w/w) 0.1 %
[2] = Table 4, concentration (w/w) 1 %
[3] = Table 4, concentration (w/w) 2.5 %

## Oc1cc(O)c2c(c1)O[C@@H](c1ccc(O)c(O)c1)[C@@H](O)C2 [Epicatechin (+)]
[1]
  % trypsin inhibition: 22%

## Oc1cc(O)c2c(c1)OC(c1ccc(O)c(O)c1)C(O)C2 (stereo not drawn) [Catechin (+)]
[1]
  % trypsin inhibition: 11%
[2]
  % trypsin inhibition: 72%
[3]
  % trypsin inhibition: 89%

## Catechin (−)
[1]
  % trypsin inhibition: 18%
[2]
  % trypsin inhibition: 70%
[3]
  % trypsin inhibition: 92%

## Oc1cc(O)c2c(c1)OC(c1ccc(O)c(O)c1)C(O)C2 (racemic) [Catechin (+/−)]
[1]
  % trypsin inhibition: 4.6%
[2]
  % trypsin inhibition: 61%
[3]
  % trypsin inhibition: 76%

## Oc1cc(O)c2c(c1)O[C@H](c1ccc(O)c(O)c1)[C@H](O)C2 [Epicatechin (−)]
[2]
  % trypsin inhibition: 71%
[3]
  % trypsin inhibition: 90%

## O=C1O[C@H]([C@@H](O)CO)C(O)=C1O [Vit C, Vitamin C]
At concentrations up to 0.1%
  trypsin inhibition activity (in words): no trypsin inhibition activity
Concentration 0.001 % (w/w)
  % trypsin inhibition: −2%
Concentration 0.01 % (w/w)
  % trypsin inhibition: 1%
Concentration 0.05 % (w/w)
  % trypsin inhibition: −12%
